The numbers were not newly measured in US11576886B2, “Constructs comprising fatty acids” (POLYREM LIMITED, priority 2017, dated 2023), which cites them from elsewhere.

This series relates to Wnt/β-catenin signalling.
As to `CNCCC(Oc1ccc(C(F)(F)F)cc1)c1ccccc1` (centres unmarked) [Fluoxetine], the Wnt/β-catenin signalling entry is “increase Wnt/β-catenin signalling”.

Take `COCCCC/C(=N\OCCN)c1ccc(C(F)(F)F)cc1` [Fluvoxamine]: the Wnt/β-catenin signalling entry is listed as “increase Wnt/β-catenin signalling”.

For the compound `O=C(CCCN1CCC(O)(c2ccc(Cl)cc2)CC1)c1ccc(F)cc1` [Haloperidol], the Wnt/β-catenin signalling result is listed as “increase Wnt/β-catenin signalling”.

On to `Cc1nc2n(c(=O)c1CCN1CCC(c3noc4cc(F)ccc34)CC1)CCCC2` [Risperidone], for which the Wnt/β-catenin signalling result was “increase Wnt/β-catenin signalling”.

`COc1ccc(C(CN(C)C)C2(O)CCCCC2)cc1` (centres unmarked) [Venlafaxine]: the Wnt/β-catenin signalling entry is “increase Wnt/β-catenin signalling”.
